Experimental data taken from patent US20260200974A1, “PEPTIDE FOR CARTILAGE REGENERATION, AND USES THEREOF” (CAREGEN CO., LTD., priority 2022, published 2026).
Where a SMILES comes first, the peptide text is derived from it. Where no end group is shown, it is not given here.

Experiments:
[1] = system: human adipose-derived mesenchymal stem cells (AD-MSC); assay: SRB staining, cell morphology changes; format: cell-based; conditions: peptide at different concentrations, FIG. 1, FIG. 2
Protocol: Additionally, for SRB staining, after suctioning the medium from the plate, 60 μL of 3.7% formalin was added to the 96-well plate to be stained and fixed for 1 minute. After suctioning 3.7% formalin, 70 μL of SRB staining solution (sulforhodamine B sodium salt (sigma, S9012): 0.2 g in 100 mL DDW) was added and stained. The plate was covered with aluminum foil, blocked from light, and incubated overnight at room temperature. After washing with 100 μL of 1% acetic acid using a multi-pipette, it was dried and observed under a microscope. Meanwhile, in this example, the positive control group (CM) used was one containing dexamethasone (100 nM), […], proline (40 μM), TGFβ1 (10 ng/ml), and 1×ITS.

[2] = system: human adipose-derived mesenchymal stem cells (AD-MSC); assay: CCK-8 assay, cytotoxicity; format: cell-based; conditions: 7 days, peptide at different concentrations, FIG. 3, FIG. 4
Protocol: Specifically, AD-MSC cells were seeded in 96-well plates at a density of 1.5×10^3 cells/well and cultured in Dulbecco's Modified Eagle's Medium (DMEM) supplemented with 10% FBS for 24 hours. Then, the medium was replaced with DMEM medium supplemented with 5% FBS, and Peptide-1 or Peptide-2 was treated at different concentrations, respectively. Subsequently, the medium was replaced every 3 days and Peptide-1 or Peptide-2 was treated at different concentrations, respectively. To confirm CCK-8 activity, after 7 days, CCK-8 (Dojindo, CCK-8 kit) solution was added at 1/10 volume of the culture medium, and incubated for 2 hours. The culture medium was sampled and CCK-8 activity was confirmed at a wavelength of 450 nm using a microplate reader.

Row | Molecule | change in cell morphology in SRB staining [1] | toxicity toward adipose-derived mesenchymal stem cells (CCK-8 activity) [2]
1 | CC(C)C[C@H](NC(=O)[C@@H](N)CCCNC(=N)N)C(=O)N[C@@H](CCCNC(=N)N)C(=O)N[C@@H](CO)C(=O)O [Peptide-2, RLRS] (H-RLRS-OH) | did not show any change in cell morphology | did not exhibit toxicity
2 | LYRYEEHHE [Peptide-1, LYRYEEHHE] | did not show any change in cell morphology | did not exhibit toxicity
